{
  "source": "patent US20240425524A1",
  "about": "“SPIROTRICYCLE RIPK1 INHIBITORS AND METHODS OF USES THEREOF” (Merck Sharp & Dohme LLC, priority 2021, published 2024)",
  "data": [
    {"target": "RIPK1 (Homo sapiens (Human), UniProt Q13546)", "sequence (Q13546 1-327)": "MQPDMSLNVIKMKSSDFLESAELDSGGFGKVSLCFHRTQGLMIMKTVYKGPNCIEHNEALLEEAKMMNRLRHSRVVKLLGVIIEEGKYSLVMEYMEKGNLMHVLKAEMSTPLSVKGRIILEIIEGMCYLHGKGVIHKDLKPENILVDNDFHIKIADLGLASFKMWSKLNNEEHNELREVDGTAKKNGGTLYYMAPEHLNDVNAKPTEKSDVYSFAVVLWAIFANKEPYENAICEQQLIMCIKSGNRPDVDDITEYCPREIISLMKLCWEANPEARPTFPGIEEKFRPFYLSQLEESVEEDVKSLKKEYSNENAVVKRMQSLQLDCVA", "assay": "RIPK1-ADP-Glo Enzymatic Assay", "assay_type": "biochemical", "settings": "recombinant GST-RIPK1 kinase domain (residues 1-327), 25 nM, ten-point titration, 30 minutes pre-incubation", "method": "The enzymatic activity of RIPK1 was measured using an assay derived from ADP-Glo kit (™Promega), which provides a luminescent-based ADP detection system. Specifically, the ADP generated by RIPK1 kinase was proportionally detected as luminescent signals in a homogenous fashion. In this context, the assessment of the inhibitory effect of small molecules (EC50) was measured by the effectiveness of the compounds to inhibit the ATP to ADP conversion by RIPK1.\nIn this assay, the potency (EC50) of each compound was determined from a ten-point (1:3 serial dilution: top compound concentration of 100000 nM) titration curve using the following outlined procedure. To each well of a white ProxiPlus 384 well-plate, 30 nL of compound (1% DMSO in final assay volume of 3 μL) was dispensed, followed by the addition of 2 μL of 1x assay buffer (25 mM Hepes 7.3, 20 mM MgCl2, 50 mM NaCl, 1 mM DTT, 0.005% Tween20, and 0.02% BSA) containing 37.5 nM of GST-RIPK1 (recombinant GST-RIPK1 kinase domain (residues 1-327) enzyme produced from baculovirus-transfected Sf21 cells: MW=62 kDa). Plates were placed in an ambient temperature humidified chamber for a 30 minutes pre-incubation with compound. Subsequently, each reaction was initiated by the addition of 1 μL 1× assay buffer containing […] dephosphorylated-MBP substrate. The final reaction in each well of 3 μL consists of 25 nM of GST-RIPK1, 300 µM ATP, and 3 μM dephosphorylated-MBP. Kinase reactions were allowed to proceed for 150 minutes prior to adding ADP-Glo reagents per Promega's outlined kit protocol. Dose-response curves were generated by plotting percent effect (% product conversion: Y-axis) vs. Logio compound concentrations (X-axis). EC50 values were calculated using a non-linear regression, four-parameters sigmoidal dose-response model and are provided for example compounds of the invention (labeled “RIPK1 EC50 (nM)” throughout the above examples).", "units": {"EC50": "nM"}, "values": [
      {"smiles": "O=C(c1cccc(F)c1)N1CCC2(CC1)CN1CC[C@@H](c3cc(F)cc(F)c3)N1C2=O", "note": "[Example 4.25, (S)-7′-(3,5-difluorophenyl)-1-(3-fluorobenzoyl) dihydro-1′H,3′H,5′H-spiro[piperidine-4,2′-pyrazolo[1,2-a]pyrazol]-l′-one]", "EC50": 35},
      {"smiles": "O=C1N2[C@H](c3cc(F)cc(F)c3)CCN2CC12CCN(c1cc(O)ncn1)CC2", "note": "[Example 1.2, (7′S)-7′-(3,5-difluorophenyl)-1-(6-hydroxypyrimidin-4-yl)dihydro-1′H,3′H,5′H-spiro[piperidine-4,2′-pyrazolo[1,2-a]pyrazol]-1′-one]", "EC50": 151},
      {"smiles": "O=C1N2[C@H](c3cc(F)cc(F)c3)CCN2CC12CCN(c1ncc(F)c(C(F)F)n1)CC2", "note": "[Example 1.57, (S)-1-(4-(difluoromethyl)-5-fluoropyrimidin-2-yl)-7′-(3,5-difluorophenyl)dihydro-1′H,3′H,5′H-spiro[piperidine-4,2′-pyrazolo[1,2-a]pyrazol]-1′-one]", "EC50": 26},
      {"smiles": "COc1nc(N2CCC3(CC2)CN2CC[C@@H](c4cc(F)cc(F)c4)N2C3=O)ncc1F", "note": "[Example 1.85, (S)-7′-(3,5-difluorophenyl)-1-(5-fluoro-4-methoxypyrimidin-2-yl)dihydro-1′H,3′H,5′H-spiro[piperidine-4,2′-pyrazolo[1,2-a]pyrazol]-1′-one]", "EC50": 22},
      {"smiles": "O=C1N2[C@H](c3cc(F)cc(F)c3)CCN2CC12CCN(c1cccc3ccnn13)CC2", "note": "[Example 8.2, (S)-7′-(3,5-difluorophenyl)-1-(pyrazolo[1,5-α]pyridin-7-yl) dihydro-1′H,3′H,5′H-spiro [piperidine-4,2′-pyrazolo[1,2-α]pyrazol]-1′-one]", "EC50": 34},
      {"smiles": "O=C1N2[C@H](c3cc(F)cc(F)c3)CCN2CC12CCN(c1ccnc(C(F)F)n1)CC2", "note": "[Example 1.8, (7′S)-1-[2-(difluoromethyl)pyrimidin-4-yl]-7′-(3,5-difluorophenyl)dihydro-1′H,3′H,5′H-spiro[piperidine-4,2′-pyrazolo[1,2-a]pyrazol]-1′-one]", "EC50": 16},
      {"smiles": "Cc1cc(N2CCC3(CC2)CN2CC[C@@H](c4cc(F)cc(F)c4)N2C3=O)nc(C#N)n1", "note": "[Example 1.16, (S)-4-(7′-(3,5-difluorophenyl)-1′-oxodihydro-1′H,3′H,5′H-spiro[piperidine-4,2′-pyrazolo[1,2-a]pyrazol]-1-yl)-6-methylpyrimidine-2-carbonitrile]", "EC50": 67},
      {"smiles": "Cc1cnn(-c2ccnc(N3CCC4(CC3)CN3CC[C@@H](c5cc(F)cc(F)c5)N3C4=O)c2)c1", "note": "[Example 2.26, (S)-7′-(3,5-difluorophenyl)-1-(4-(4-methyl-1H-pyrazol-1-yl)pyridin-2-yl)dihydro-1′H,3′H,5′H-spiro[piperidine-4,2′-pyrazolo[1,2-a]pyrazol]-1′-one]", "EC50": 98},
      {"smiles": "O=C1N2[C@H](c3cc(F)cc(F)c3)CCN2CC12CCN(c1ncc(F)cc1C(F)F)CC2", "note": "[Example 2.9, (S)-1-(3-(difluoromethyl)-5-fluoropyridin-2-y1)-7′-(3,5-difluorophenyl)dihydro-l′H,3′H,5′H-spiro[piperidine-4,2′-pyrazolo[1,2-a]pyrazol]-1′-one]", "EC50": 792},
      {"smiles": "O=C1N2[C@H](c3cc(F)cc(F)c3)CCN2CC12CCN(c1cccc(C(F)(F)F)n1)CC2", "note": "[Example 1.63, (S)-7′-(3,5-difluorophenyl)-1-(6-(trifluoromethyl)pyridin-2-yl)dihydro-1′H,3′H,5′H-spiro[piperidine-4,2′-pyrazolo[1,2-a]pyrazol]-1′-one]", "EC50": 83},
      {"smiles": "N#Cc1cc(F)cc(C(=O)N2CCC3(CC2)CN2CC[C@@H](c4cc(F)cc(F)c4)N2C3=O)c1", "note": "[Example 4.7, (S)-3-(7′-(3,5-difluorophenyl)-1′-oxodihydro-1′H,3′H,5′H-spiro[piperidine-4,2′-pyrazolo[1,2-a]pyrazole]-1-carbonyl)-5-fluorobenzonitrile]", "EC50": 211},
      {"smiles": "O=C1N2[C@H](c3cc(F)cc(F)c3)CCN2CC12CCN(c1ccc(Cl)nn1)CC2", "note": "[Example 1.34, (S)-1-(6-chloropyridazin-3-yl)-7′-(3,5-difluorophenyl)dihydro-1′H,3′H,5′H-spiro[piperidine-4,2′-pyrazolo[1,2-a]pyrazol]-1′-one]", "EC50": 457},
      {"smiles": "O=C1N2[C@H](c3cc(F)cc(F)c3)CCN2CC12CCN(c1ncnc3scnc13)CC2", "note": "[Example 3.3, (S)-7′-(3,5-difluorophenyl)-1-(thiazolo[5,4-d]pyrimidin-7-yl)dihydro-1′H,3′H,5′H-spiro[piperidine-4,2′-pyrazolo[1,2-a]pyrazol]-1′-one]", "EC50": 14},
      {"smiles": "CSc1cc(N2CCC3(CC2)CN2CC[C@@H](c4cc(F)cc(F)c4)N2C3=O)ncn1", "note": "[Example 1.14, (S)-7′-(3,5-difluorophenyl)-1-(6-(methylthio)pyrimidin-4-yl)dihydro-1′H,3′H,5′H-spiro[piperidine-4,2′-pyrazolo[1,2-a]pyrazol]-1′-one]", "EC50": 17},
      {"smiles": "O=C1N2[C@H](c3cc(F)cc(F)c3)CCN2CC12CCN(c1cnnc(Cl)c1)CC2", "note": "[Example 1.96, (S)-1-(6-chloropyridazin-4-yl)-7′-(3,5-difluorophenyl)dihydro-1′H,3′H,5′H-spiro[piperidine-4,2′-pyrazolo[1,2-a]pyrazol]-1′-one]", "EC50": 571},
      {"smiles": "O=C1N2[C@H](c3cc(F)cc(F)c3)CCN2CC12CCN(c1cnc(Cl)cn1)CC2", "note": "[Example 1.42, (S)-1-(5-chloropyrazin-2-yl)-7′-(3,5-difluorophenyl)dihydro-1′H,3′H,5′H-spiro[piperidine-4,2′-pyrazolo[1,2-a]pyrazol]-1′-one]", "EC50": 86},
      {"smiles": "Cc1ccn(-c2cccc(N3CCC4(CC3)CN3CC[C@@H](c5cc(F)cc(F)c5)N3C4=O)n2)n1", "note": "[Example 2.13, (S)-7′-(3,5-difluorophenyl)-1-(6-(3-methyl-1H-pyrazol-1-yl)pyridin-2-yl)dihydro-1′H,3′H,5′H-spiro[piperidine-4,2′-pyrazolo[1,2-a]pyrazol]-1′-one]", "EC50": 17},
      {"smiles": "CCn1cnc2c(N3CCC4(CC3)CN3CC[C@@H](c5cc(F)cc(F)c5)N3C4=O)ncnc21", "note": "[Example 3.2, (S)-7′-(3,5-difluorophenyl)-1-(9-ethyl-9H-purin-6-yl)dihydro-l′H,3′H,5′H-spiro[piperidine-4,2′-pyrazolo[1,2-a]pyrazol]-1′-one]", "EC50": 765},
      {"smiles": "O=C1N2[C@H](c3cc(F)cc(F)c3)CCN2CC12CCN(c1ncc(C3CC3)cn1)CC2", "note": "[Example 1.56, (S)-1-(5-cyclopropylpyrimidin-2-yl)-7′-(3,5-difluorophenyl)dihydro-1′H,3′H,5′H-spiro[piperidine-4,2′-pyrazolo[1,2-a]pyrazol]-1′-one]", "EC50": 321},
      {"smiles": "O=C1N2[C@H](c3cc(F)cc(F)c3)CCN2CC12CCN(c1nc(Cl)nc3c1CCC3)CC2", "note": "[Example 1.65, (S)-1-(2-chloro-6,7-dihydro-5H-cyclopenta[d]pyrimidin-4-yl)-7′-(3,5-difluorophenyl)dihydro-1′H,3′H,5′H-spiro[piperidine-4,2′-pyrazolo[1,2-a]pyrazol]-1′-one]", "EC50": 144},
      {"smiles": "COc1ccnc(N2CCC3(CC2)CN2CC[C@@H](c4cc(F)cc(F)c4)N2C3=O)n1", "note": "[Example 1.95, (S)-7′-(3,5-difluorophenyl)-1-(4-methoxypyrimidin-2-yl)dihydro-1′H,3′H,5′H-spiro[piperidine-4,2′-pyrazolo[1,2-a]pyrazol]-1′-one]", "EC50": 86},
      {"smiles": "N#Cc1ccc(C(=O)N2CCC3(CC2)CN2CC[C@@H](c4cc(F)cc(F)c4)N2C3=O)cc1F", "note": "[Example 4.15, (S)-4-(7′-(3,5-difluorophenyl)-1′-oxodihydro-1′H,3′H,5′H-spiro[piperidine-4,2′-pyrazolo[1,2-a]pyrazole]-1-carbonyl)-2-fluorobenzonitrile]", "EC50": 858},
      {"smiles": "Cc1nccc(N2CCC3(CC2)CN2CC[C@@H](c4cc(F)cc(F)c4)N2C3=O)n1", "note": "[Example 1.45, (S)-7′-(3,5-difluorophenyl)-1-(2-methylpyrimidin-4-yl)dihydro-1′H,3′H,5′H-spiro[piperidine-4,2′-pyrazolo[1,2-a]pyrazol]-1′-one]", "EC50": 176},
      {"smiles": "Cc1ncc(Cl)nc1N1CCC2(CC1)CN1CC[C@@H](c3cc(F)cc(F)c3)N1C2=O", "note": "[Example 1.43, (S)-1-(6-chloro-3-methylpyrazin-2-yl)-7′-(3,5-difluorophenyl)dihydro-1′H,3′H,5′H-spiro[piperidine-4,2′-pyrazolo[1,2-a]pyrazol]-1′-one]", "EC50": 876},
      {"smiles": "O=C1N2[C@H](c3cc(F)cc(F)c3)CCN2CC12CCN(c1cc(-c3ccco3)ccn1)CC2", "note": "[Example 2.22, (S)-7′-(3,5-difluorophenyl)-1-(4-(furan-2-y1)pyridin-2-yl)dihydro-1′H,3′H,5′H-spiro[piperidine-4,2′-pyrazolo[1,2-a]pyrazol]-1′-one]", "EC50": 132},
      {"smiles": "O=C1N2[C@H](c3cc(F)cc(F)c3)CCN2CC12CCN(c1cncc(F)c1)CC2", "note": "[Example 10.2, (S)-7′-(3,5-difluorophenyl)-1-(5-fluoropyridin-3-yl)dihydro-1′H,3′H,5′H-spiro[piperidine-4,2′-pyrazolo[1,2-a]pyrazol]-l′-one]", "EC50": 338}
    ]}
  ]
}
